In ChEMBL document CHEMBL3525932, “Comparison of metabolism of sesamin and episesamin by drug-metabolizing enzymes in human liver” (Drug Metab Dispos, 2012):

What was measured:
Cytochrome P450 1A2 [1] = molecular target: T1, Cytochrome P450 1A2 (Homo sapiens, UniProt P05177); assay: Activity of recombinant human CYP1A2 expressed in Saccharomyces cerevisiae AH22 cells assessed as enzyme-mediated compound formation treated with (S)-episesamin monocatechol at 1 to 30 uM after 15 mins by HPLC analysis in presence of NADPH; type: ADME, cell-based; conditions: ah22, 0.25 h
T1 sequence (P05177 whole entry): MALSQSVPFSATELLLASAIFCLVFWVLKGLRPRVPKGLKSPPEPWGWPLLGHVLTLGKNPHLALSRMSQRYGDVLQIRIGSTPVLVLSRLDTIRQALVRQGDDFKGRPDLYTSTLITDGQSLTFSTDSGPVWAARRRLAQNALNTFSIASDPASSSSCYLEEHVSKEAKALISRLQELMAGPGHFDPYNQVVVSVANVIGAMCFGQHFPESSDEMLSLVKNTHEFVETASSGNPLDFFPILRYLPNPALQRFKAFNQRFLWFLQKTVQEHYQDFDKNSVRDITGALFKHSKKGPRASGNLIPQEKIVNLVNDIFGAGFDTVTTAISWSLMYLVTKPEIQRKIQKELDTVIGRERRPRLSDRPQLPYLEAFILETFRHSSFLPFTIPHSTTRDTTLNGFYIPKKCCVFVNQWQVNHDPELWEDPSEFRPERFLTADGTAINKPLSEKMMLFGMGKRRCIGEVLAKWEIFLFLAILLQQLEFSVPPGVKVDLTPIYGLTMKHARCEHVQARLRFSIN

Cytochrome P450 1A2 [2] = molecular target: T1, Cytochrome P450 1A2; assay: Activity of recombinant human CYP1A2 expressed in Saccharomyces cerevisiae AH22 cells assessed as enzyme-mediated compound formation treated with (R)-episesamin monocatechol at 1 to 30 uM after 15 mins by HPLC analysis in presence of NADPH; type: ADME, cell-based; conditions: ah22, 0.25 h
Cytochrome P450 2C9 [3] = molecular target: T2, Cytochrome P450 2C9 (Homo sapiens, UniProt P11712); assay: Activity of recombinant human CYP2C9 expressed in Saccharomyces cerevisiae AH22 cells assessed as enzyme-mediated compound formation treated with (S)-episesamin monocatechol at 1 to 30 uM after 15 mins by HPLC analysis in presence of NADPH; type: ADME, cell-based; conditions: ah22, 0.25 h
Cytochrome P450 2C9 [4] = molecular target: T2, Cytochrome P450 2C9; assay: Activity of recombinant human CYP2C9 expressed in Saccharomyces cerevisiae AH22 cells assessed as enzyme-mediated compound formation treated with (R)-episesamin monocatechol at 1 to 30 uM after 15 mins by HPLC analysis in presence of NADPH; type: ADME, cell-based; conditions: ah22, 0.25 h
Cytochrome P450 2C19 [5] = molecular target: T3, Cytochrome P450 2C19 (Homo sapiens, UniProt P33261); assay: Activity of recombinant human CYP2C19 expressed in Saccharomyces cerevisiae AH22 cells assessed as enzyme-mediated compound formation treated with episesamin at 2 to 75 uM after 15 mins by HPLC analysis in presence of NADPH; type: ADME, cell-based; conditions: ah22, 0.25 h
[6] = Drug metabolism in human liver microsomes assessed as UGT-mediated glucuronidation per mg of protein after 10 to 30 mins by HPLC analysis in presence of UDP-GlcUA; type: ADME
[7] = Drug metabolism in Sprague-Dawley rat liver microsomes assessed as UGT-mediated glucuronidation per mg of protein after 10 to 30 mins by HPLC analysis in presence of UDP-GlcUA; type: ADME
UGT [8] = assay: Drug metabolism in Sprague-Dawley rat liver microsomes assessed as UGT-mediated glucuronidation after 10 to 30 mins by HPLC analysis in presence of UDP-GlcUA; type: ADME
Liver microsome [9] = assay: Drug level in human liver microsomes treated with episesamin at 5 uM after 30 mins by HPLC analysis in presence of NADPH; type: ADME; conditions: 0.5 h
CYP450 [10] = assay: Drug metabolism in Sprague-Dawley rat liver microsomes assessed as CYP450-mediated catecholization after 10 to 30 mins by HPLC analysis in presence of NADPH; type: ADME
Cytochrome P450 2C19 [11] = molecular target: T3, Cytochrome P450 2C19; assay: Activity of recombinant human CYP2C19 expressed in Saccharomyces cerevisiae AH22 cells assessed as enzyme-mediated episesamin dicatechol formation after 15 mins by HPLC analysis in presence of NADPH; type: ADME, cell-based; conditions: ah22, 0.25 h
Cytochrome P450 1A2 [12] = molecular target: T1, Cytochrome P450 1A2; assay: Activity of recombinant human CYP1A2 expressed in Saccharomyces cerevisiae AH22 cells assessed as enzyme-mediated compound formation treated with episesamin at 2 to 75 uM after 15 mins by HPLC analysis in presence of NADPH; type: ADME, cell-based; conditions: ah22, 0.25 h
CYP450 [13] = assay: Drug metabolism in human liver microsomes assessed as CYP450-mediated catecholization after 10 to 30 mins by HPLC analysis in presence of NADPH; type: ADME
UGT [14] = assay: Drug metabolism in human liver microsomes assessed as UGT-mediated glucuronidation after 10 to 30 mins by HPLC analysis in presence of UDP-GlcUA; type: ADME
Cytochrome P450 2C9 [15] = molecular target: T2, Cytochrome P450 2C9; assay: Activity of recombinant human CYP2C9 expressed in Saccharomyces cerevisiae AH22 cells assessed as enzyme-mediated compound formation treated with episesamin at 2 to 75 uM after 15 mins by HPLC analysis in presence of NADPH; type: ADME, cell-based; conditions: ah22, 0.25 h
Cytochrome P450 2C9 [16] = molecular target: T2, Cytochrome P450 2C9; assay: Activity of recombinant human CYP2C9 expressed in Saccharomyces cerevisiae AH22 cells assessed as enzyme-mediated episesamin dicatechol formation after 15 mins by HPLC analysis in presence of NADPH; type: ADME, cell-based; conditions: ah22, 0.25 h
Liver microsome [17] = assay: Drug level in human liver microsomes treated with episesamin at 2 to 75 uM after 15 mins by HPLC analysis in presence of NADPH; type: ADME; conditions: 0.25 h
[18] = molecular target: T4, UDP-glucuronosyltransferase 2B7 (Homo sapiens, UniProt P16662); assay: Activity of recombinant human UGT2B7 expressed in baculovirus infected insect cells assessed as enzyme-mediated glucuronidation at 1 to 30 uM after 10 to 30 mins by HPLC analysis in presence of UDP-GlcUA; type: ADME
T4 sequence (P16662 whole entry): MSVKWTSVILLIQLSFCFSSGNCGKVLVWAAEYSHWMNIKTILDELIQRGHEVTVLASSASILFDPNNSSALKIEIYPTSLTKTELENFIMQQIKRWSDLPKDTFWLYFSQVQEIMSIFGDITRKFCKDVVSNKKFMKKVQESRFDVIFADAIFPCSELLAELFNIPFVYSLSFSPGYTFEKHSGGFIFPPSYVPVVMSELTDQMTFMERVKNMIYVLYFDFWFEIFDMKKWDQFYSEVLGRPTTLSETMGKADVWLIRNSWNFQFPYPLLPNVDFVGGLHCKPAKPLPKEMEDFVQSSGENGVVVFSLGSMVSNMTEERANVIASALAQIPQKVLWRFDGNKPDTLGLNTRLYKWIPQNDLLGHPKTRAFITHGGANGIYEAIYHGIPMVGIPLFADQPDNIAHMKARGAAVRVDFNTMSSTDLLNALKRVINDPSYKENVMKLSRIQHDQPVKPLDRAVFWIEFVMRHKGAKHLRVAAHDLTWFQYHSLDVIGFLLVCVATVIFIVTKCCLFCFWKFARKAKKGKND

[19] = Drug metabolism in human liver microsomes assessed as CYP450-mediated catecholization per mg of protein after 10 to 30 mins by HPLC analysis in presence of NADPH; type: ADME
Cytochrome P450 1A2 [20] = molecular target: T1, Cytochrome P450 1A2; assay: Activity of recombinant human CYP1A2 expressed in Saccharomyces cerevisiae AH22 cells assessed as enzyme-mediated episesamin dicatechol formation after 15 mins by HPLC analysis in presence of NADPH; type: ADME, cell-based; conditions: ah22, 0.25 h
Cytochrome P450 2C19 [21] = molecular target: T3, Cytochrome P450 2C19; assay: Activity of recombinant human CYP2C19 expressed in Saccharomyces cerevisiae AH22 cells assessed as enzyme-mediated compound formation treated with sesamin at 2 to 20 uM after 15 mins by HPLC analysis in presence of NADPH; type: ADME, cell-based; conditions: ah22, 0.25 h
[22] = Drug metabolism in Sprague-Dawley rat liver microsomes assessed as CYP450-mediated catecholization per mg of protein after 10 to 30 mins by HPLC analysis in presence of NADPH; type: ADME

T2 sequence (P11712 whole entry): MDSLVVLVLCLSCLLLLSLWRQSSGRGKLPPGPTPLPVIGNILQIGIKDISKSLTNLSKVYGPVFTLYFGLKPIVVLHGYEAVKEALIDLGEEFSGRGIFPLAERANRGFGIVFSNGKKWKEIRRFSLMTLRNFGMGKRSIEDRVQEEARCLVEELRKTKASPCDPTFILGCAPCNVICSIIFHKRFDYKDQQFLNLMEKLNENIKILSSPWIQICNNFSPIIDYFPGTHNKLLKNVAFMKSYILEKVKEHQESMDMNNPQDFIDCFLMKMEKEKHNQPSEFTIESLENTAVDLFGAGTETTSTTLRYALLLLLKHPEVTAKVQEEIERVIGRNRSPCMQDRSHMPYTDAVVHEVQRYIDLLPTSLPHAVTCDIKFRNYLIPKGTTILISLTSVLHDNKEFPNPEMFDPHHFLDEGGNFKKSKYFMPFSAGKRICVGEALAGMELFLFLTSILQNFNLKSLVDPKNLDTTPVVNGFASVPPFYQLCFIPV
T3 sequence (P33261 whole entry): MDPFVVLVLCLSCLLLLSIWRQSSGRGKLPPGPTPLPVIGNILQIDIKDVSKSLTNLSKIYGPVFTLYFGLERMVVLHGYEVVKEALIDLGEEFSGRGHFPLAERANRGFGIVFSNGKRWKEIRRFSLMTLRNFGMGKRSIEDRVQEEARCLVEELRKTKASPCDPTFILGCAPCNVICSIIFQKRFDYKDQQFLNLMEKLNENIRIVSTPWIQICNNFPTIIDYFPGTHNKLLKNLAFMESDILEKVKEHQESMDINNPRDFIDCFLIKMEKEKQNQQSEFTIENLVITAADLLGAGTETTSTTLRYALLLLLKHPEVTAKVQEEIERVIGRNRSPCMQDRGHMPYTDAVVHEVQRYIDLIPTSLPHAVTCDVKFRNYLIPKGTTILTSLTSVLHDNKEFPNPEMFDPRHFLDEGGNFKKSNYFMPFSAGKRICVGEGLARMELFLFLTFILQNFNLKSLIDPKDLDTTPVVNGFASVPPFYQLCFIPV

| Drug metabolism (Cytochrome P450 2C19 [5]) | Vmax [6] [nmol/min/mg] | Vmax [7] [nmol/min/mg] | Km (UGT [8]) [µM] | Drug metabolism (Liver microsome [9]) | Km (CYP450 [10]) [µM] | Drug metabolism (Cytochrome P450 2C19 [11]) [nmol/min] | Km (CYP450 [13]) [µM] | Km (UGT [14]) [µM] | Drug metabolism (Cytochrome P450 2C9 [16]) [nmol/min] | Drug metabolism (Liver microsome [17]) | Drug metabolism [18] | Vmax [19] [nmol/min/mg] | Drug metabolism (Cytochrome P450 1A2 [20]) [nmol/min] | Structure (SMILES) | further results |
| --- | --- | --- | --- | --- | --- | --- | --- | --- | --- | --- | --- | --- | --- | --- | --- |
| metabolite_detected | – | – | – | – | – | – | – | – | – | – | – | – | – | Oc1ccc([C@H]2OC[C@H]3[C@@H]2CO[C@H]3c2ccc(O)c(O)c2)cc1O | Drug metabolism (Cytochrome P450 1A2 [1]): metabolite_detected; Drug metabolism (Cytochrome P450 1A2 [2]): metabolite_detected; Drug metabolism (Cytochrome P450 2C9 [3]): metabolite_detected; Drug metabolism (Cytochrome P450 2C9 [4]): metabolite_detected |
| metabolite_detected | 0.68 | 0.55 | 9.9 | metabolite_detected | 8.7 | 9.4 | 1.8 | 8.6 | 0.19 | metabolite_detected | metabolite_detected | 0.15 | 0.38 | Oc1ccc([C@@H]2OC[C@H]3[C@@H]2CO[C@@H]3c2ccc3c(c2)OCO3)cc1O | Drug metabolism (Cytochrome P450 1A2 [12]): metabolite_detected; Drug metabolism (Cytochrome P450 2C9 [15]): metabolite_detected |
| – | – | – | – | – | – | – | – | – | – | – | – | – | – | Oc1ccc([C@H]2OC[C@H]3[C@@H]2CO[C@@H]3c2ccc(O)c(O)c2)cc1O | Drug metabolism (Cytochrome P450 2C19 [21]): metabolite_detected |
| metabolite_detected | 0.55 | 4.4 | 16.8 | metabolite_detected | 2.9 | 9.4 | 4.1 | 9.9 | 0.19 | metabolite_detected | metabolite_detected | 0.28 | 0.38 | Oc1ccc([C@H]2OC[C@H]3[C@@H]2CO[C@H]3c2ccc3c(c2)OCO3)cc1O | Vmax [22]: 1.9 nmol/min/mg |
